Where two headings read alike, the source gives them in different places.
Columns and labels:
[1] = test system: Puccinia triticina; test: In vivo preventive test on Puccinia triticina (wheat); conditions: for Efficacy: 500 ppm of active ingredient, evaluated 8 days after inoculation; for pest or weed control at 500 ppm: Puccinia triticina, 192 h, Table K6, dose 500 ppm, comparison with des-fluoro analogues, read-out: Efficacy
[2] = test system: Alternaria solani; test: In vivo preventive test on Alternaria solani (tomato); conditions: 500 ppm of active ingredient, evaluated 7 days after inoculation
Protocol: Solvent: 49 parts by weight of N,N-dimethylformamide Emulsifier: 1 part by weight of Alkylarylpolyglycolether To produce a suitable preparation of active compound, 1 part by weight of active compound is mixed with the stated amounts of solvent and emulsifier, and the concentrate is diluted with water to the desired concentration. To test for preventive activity, young plants are sprayed with the preparation of active compound at the stated rate of application. One day after this treatment, the plants are inoculated with an aqueous spore suspension of Alternaria solani.

[3] = test system: Pyrenophora teres; test: In vivo preventive test on Pyrenophora teres (barley); conditions: 500 ppm of active ingredient, evaluated 7-9 days after inoculation
Outline: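 Preventive test: young barley plants received a water-diluted spray of compound formulated with DMF solvent plus alkylaryl polyglycol ether emulsifier, at the stated rate. Inoculation with an aqueous spore suspension of Pyrenophora teres followed one day after spraying.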

[4] = test system: aflatoxines produced by Aspergillus parasiticus; test: microbe, parasite or virus in culture; assay type: cell-based
[5] = test system: Aspergillus parasiticus; test: microbe, parasite or virus in culture; assay type: cell-based
[6] = log P by HPLC on reversed-phase column (EEC Directive 79/831 Annex V.A8); assay type: physicochemical
Protocol: In table 1, the log P values were determined in accordance with EEC Directive 79/831 Annex V.A8 by HPLC (High Performance Liquid Chromatography) on a reversed-phase column (C18), using the method described below: Temperature: 40° C.; […]

Compound	Efficacy [1]	pest or weed control at 500 ppm [1]	Efficacy [2]	Efficacy [3]	% Inhibition of Aflatoxin at 50 μM [4]	% Inhibition of fungal growth at 50 μM [5]	logP [6]	% Inhibition of Aflatoxin at 50 μM ([4]; 50 µM)	% Inhibition of fungal growth at 50 μM ([5]; 50 µM)
Cc1nn(C)c(F)c1C(=O)NC1CCCCC1C1CCCCC1 (stereo not drawn) [compound CMP4, N-[1,1′-bi(cyclohexyl)-2-yl]-5-fluoro-1,3-dimethyl-1H-pyrazole-4-carboxamide, reference compound]	no protection	0%							
CC(COc1ccc(Cl)cc1Cl)NC(=O)c1c(C(F)F)nn(C)c1Cl (stereo not drawn) [Example 190]			90%	95%	88%	77%	3.76		
CC(CNC(=O)c1c(C(F)F)nn(C)c1F)Cc1cc(Cl)cc(Cl)c1 (stereo not drawn) [Example 116]			90%	100%	100%	82%	3.83		
Cn1nc(C(F)F)c(C(=O)NC(C)(C)CCc2cc(Cl)cc(Cl)c2)c1Cl [Example 125]			95%	100%	96%	76%	4.64		
Cc1cccc(OC2CCCC2NC(=O)c2c(C(F)F)nn(C)c2F)c1 (stereo not drawn) [Example 259]			90%	78%	97%	82%	3.52		
CC(COc1cc(Cl)ccc1Cl)NC(=O)c1c(C(F)F)nn(C)c1Cl (stereo not drawn) [Example 174]			100%	95%	85%	67%	3.69		
Cn1cc(C(=O)NC2CCCCC2C2CCCCC2)c(C(F)F)n1 (stereo not drawn) [compound CMP5, N-[1,1′-bi(cyclohexyl)-2-yl]-3-(difluoromethyl)-1-methyl-1H-pyrazole-4-carboxamide, reference compound]	no protection	0%							
Cn1nc(C(F)F)c(C(=O)NC(C)(C)CCc2cc(Cl)cc(Cl)c2)c1F [Example 126]			90%	100%	100%	89%	4.41		
CC(CCc1ccc(Cl)cc1Cl)N(C(=O)c1c(C(F)F)nn(C)c1Cl)C1CC1 (stereo not drawn) [Example 183]			95%	100%	82%	79%	4.72		
Cn1nc(C(F)F)c(C(=O)NC(COc2ccc(Cl)cc2Cl)C2CC2)c1F (stereo not drawn) [Example 193]			95%	94%	100%	92%	3.92		
Cn1nc(C(F)F)c(C(=O)N(CCOc2c(Cl)cccc2Cl)C2CC2)c1F [Example 124, N-cyclopropyl-N-[2-(2,6-dichlorophenoxy)ethyl]-3-(difluoromethyl)-5-fluoro-1-methyl-1H-pyrazole-4-carboxamide]			95%	90%			4.23	99%	81%
CC(CCc1c(Cl)cc(Cl)cc1Cl)N(C(=O)c1c(C(F)F)nn(C)c1Cl)C1CC1 (stereo not drawn) [Example 214]			80%	100%	100%	93%	4.31		
CCC(COc1cc(Cl)cc(Cl)c1)NC(=O)c1c(C(F)F)nn(C)c1F (racemic) [Example 123]			95%	100%	100%	96%	4.04		
Cc1cccc(C)c1OCCNC(=O)c1c(C(F)F)nn(C)c1F [Example 151]			90%	94%	100%	100%	2.88		
CC(CSc1ccc(Cl)cc1Cl)NC(=O)c1c(C(F)F)nn(C)c1F (stereo not drawn) [Example 191]			95%	100%	100%	100%	3.76		
CCC(COc1cc(Cl)ccc1Cl)NC(=O)c1c(C(F)F)nn(C)c1F (stereo not drawn) [Example 175]			95%	95%	100%	92%	3.83		
CC(CSc1ccc(Cl)cc1Cl)NC(=O)c1c(C(F)F)nn(C)c1Cl (stereo not drawn) [Example 192]			95%	100%	100%	91%	4.01		

Compound	Efficacy [1]	pest or weed control at 500 ppm [1]	Efficacy [2]	Efficacy [3]	% Inhibition of Aflatoxin at 50 μM [4]	% Inhibition of fungal growth at 50 μM [5]	logP [6]	% Inhibition of Aflatoxin at 50 μM ([4]; 50 µM)	% Inhibition of fungal growth at 50 μM ([5]; 50 µM)
CC(COc1ccc(Cl)cc1Cl)NC(=O)c1c(C(F)F)nn(C)c1F (stereo not drawn) [Example 189]			90%	100%	100%	94%	3.58		
CC(CCc1ccc(Cl)c(Cl)c1)NC(=O)c1c(C(F)F)nn(C)c1F (racemic) [Example 132]			100%	100%	100%	85%	3.65		
CCC(COc1cccc2ccccc12)NC(=O)c1c(C(F)F)nn(C)c1F (stereo not drawn) [Example 222]			90%	90%	91%	78%	3.71		
CCC(C)C(C)N(C(=O)c1c(C(F)F)nn(C)c1Cl)C1CC1 (stereo not drawn) [Example 303]			80%	100%	100%	90%	3.52		
Cn1nc(C(F)F)c(C(=O)NC(C)(C)CCc2cc(Cl)ccc2Cl)c1F [Example 178]			95%	100%	100%	88%	4.26		
CN(CCCc1ccccc1Cl)C(=O)c1c(C(F)F)nn(C)c1F [Example 142]			100%	95%	100%	84%	3.06		
CC(CNC(=O)c1c(C(F)F)nn(C)c1F)Cc1ccc(Cl)c(Cl)c1 (racemic) [Example 128]			95%	100%	83%	71%	3.68		
CC(COc1cc(Cl)cc(Cl)c1)NC(=O)c1c(C(F)F)nn(C)c1Cl (racemic) [Example 122]			100%	100%	100%	91%	3.92		
Cn1nc(C(F)F)c(C(=O)NCCCc2ccc(Cl)cc2Cl)c1F [Example 180]			90%	100%	100%	100%	3.46		
CC(CNC(=O)c1c(C(F)F)nn(C)c1F)Cc1cc(Cl)ccc1Cl (stereo not drawn) [Example 165]			90%	100%	99%	83%	3.65		
CC(COc1cc(Cl)cc(Cl)c1)NC(=O)c1c(C(F)F)nn(C)c1F (racemic) [Example 121]			90%	100%	100%	98%	3.72		
CCC1CCCCC1CNC(=O)c1c(C(F)F)nn(C)c1F (stereo not drawn) [Example 364]			95%	80%	99%	81%	3.49		
Cn1nc(C(F)F)c(C(=O)NC(C)(C)CCc2ccccc2Cl)c1F [Example 148]			95%	95%	90%	67%	3.79		
Cn1nc(C(F)F)c(C(=O)NC(C)(C)CCc2cccc(C(F)(F)F)c2)c1F [Example 136]			80%	95%	93%	71%	3.94		
CC(CCc1ccccc1Cl)NC(=O)c1c(C(F)F)nn(C)c1Cl (racemic) [Example 143]			100%	100%	96%	73%	3.41		
CC(COc1cc(Cl)ccc1Cl)NC(=O)c1c(C(F)F)nn(C)c1F (stereo not drawn) [Example 173]			90%	78%	100%	85%	3.46		

From patent US8999956B2, “N-[(het)arylalkyl)] pyrazole(thio)carboxamides and their heterosubstituted analogues” (Bayer Intellectual Property GmbH, priority 2010, dated 2015)
